The source of these data is patent US6617126B1, “Method for improving the growth and colorimetric detection of bacteria, yeasts, fungi or cocci” (priority 1996, dated 2003).

The test system of assay [1] is Mycobacterium tuberculosis. The experiment in a line: microbe, parasite or virus in culture.
The subject of assay [2] is Mycobacterium tuberculosis.
[3] abbreviates: H37RV, read-out: MIC (minimum inhibiting concentration), strain M.tb. H37 Rv.
Where [4] appears, read: read-out: MIC (minimum inhibiting concentration), strain Clin. M.tb 1.
[5] abbreviates: read-out: MIC (minimum inhibiting concentration), strain Clin. M.tb 15.

In brackets after ≈: the same amount, converted by molar mass. Where two headings read alike, the source gives them in different places.

As for `CO[C@H]1/C=C/O[C@@]2(C)Oc3c(C)c(O)c4c(O)c(c(/C=N/N5CCN(C)CC5)c(O)c4c3C2=O)NC(=O)/C(C)=C\C=C\[C@H](C)[C@H](O)[C@@H](C)[C@@H](O)[C@@H](C)[C@H](OC(C)=O)[C@@H]1C` [Rifampicin (RMP), Rifampicin], the MIC in assay [1] (setting [3]) is 2 µg/mL (≈ 2.43 µM); in assay [1] (setting [4]), 1 µg/mL (≈ 1.22 µM); in assay [1] (setting [5]) it was 2 µg/mL (≈ 2.43 µM).
As for `NNC(=O)c1ccncc1` [Isoniacid (INA), Isoniacid], the “MIC (minimum inhibiting concentration)” value is 0.03 µg/mL (≈ 0.219 µM) in assay [2] (strain Clin. M.tb 1), 0.03 µg/mL (≈ 0.219 µM) in assay [2] (strain Clin. M.tb 15) and 0.06 µg/mL (≈ 0.438 µM) in assay [2] (strain M.tb. H37 Rv).
`CC[C@@H](CO)NCCN[C@@H](CC)CO` [Ethambutol (EMB), Ethambutol]: the MIC turned out to be 0.5 µg/mL (≈ 2.45 µM) in assay [1] (setting [3]), 0.25 µg/mL (≈ 1.22 µM) in assay [1] (setting [4]) and 0.5 µg/mL (≈ 2.45 µM) in assay [1] (setting [5]).
